Like-named read-outs stand apart in the source and are kept apart here.

This is an account of results in article PMC6770484, “Discovery of Orexant and Anorexant Agents with Indazole Scaffold Endowed with Peripheral Antiedema Activity” (Biomolecules, 2019).

For one test, the system named is food intake. Kind of test: Feeding test (food intake). It counts as in vivo, CD-1 male mice. Particulars: 10 mg/Kg i.p., fasted mice, 1-h test. From the text:
(§1) The international and national law and policies approved by Italian Ministry of Health were used to comply with all animal care and experimental procedures. Animal studies were advised in compliance with the ARRIVE guidelines and with the recommendations made by EU Directive 2010/63/EU for animal experiments and the Basel declaration including the 3Rs concept. CD-1 male mice (10–14 weeks of age, 25–30 g of weight) were bought from Charles River (Milan, Italy). Shortly after their arrival and for at least one week, they were kept in an animal care facility under controlled standard conditions of temperature (21 ± 1 °C), light (from 7:00 AM to 7:00 PM), and relative humidity (60 ± 10%). Access to drinking water and food was assured. All procedures were performed to decrease the number of animals used (n = 6 per group) and their distress.
The test was carried out as previously described. At 24 h before the start of a feeding test, all food was removed from the home cages of mice to be tested. The next day and at least 1 h before the feeding test began, the mice were transported to the laboratory. On test days, the animals were placed in the home cages for 30 min of drug assimilation, during which food was not available. Then compounds were intraperitoneally administered (10 mg/kg). Mice were transferred into transparent and individual plastic cages with thick white paper lining the bottom and access to a pre-measured amount of their regular lab chow (2 gr) for the 1-h test. At the end of 1 h, mice were repositioned into their home cage. The amount of food left in the trial cage, including crumbs, was measured, and the amount consumed was calculated. Feeding trials normally happened on Tuesdays and Fridays between 12:00 and 14:00 h.

Test [1] has as its target T1, CB1 receptor G protein activation, rat brain membranes (Rattus norvegicus, UniProt P20272).
T1 construct: Crude membrane fractions were prepared from the brain; from tissue; host or cells: Wistar rat whole brain, crude membrane fraction
Particulars: cited from earlier work; for [35S]GTPγS Binding Emax: basal = 100%; for EC50: read-out: [35S]GTPγS Binding EC50. (GTPγS resists hydrolysis and so accumulates on activated G proteins.)

Test [2] deals with T2, cannabinoid receptors (CB1), rat brain membranes (Rattus norvegicus, UniProt P20272).
T2 construct: Crude membrane fractions were prepared from the brain; from tissue; host or cells: Wistar rat whole brain, crude membrane fraction
Particulars: displacement of [3H]WIN55212-2, rat brain membranes; cited from earlier work.

The target of test [3] is T2, cannabinoid receptors (CB1), rat brain membranes. Kind of test: [3H]WIN55212-2 radioligand competition binding assay. As to the method: (§2) Wistar rats were locally bred and handled according to the EU Directive 2010/63/EU and to the Regulations on Animal Protection (40/2013. (II. 14.) Korm. r.) of Hungary. Crude membrane fractions were prepared from the brain. Brains were quickly removed from the euthanized rats and directly put in an ice-cold 50 mM Tris–HCl buffer (pH 7.4). The collected tissue was then homogenized in 30 volumes (v/w) of an ice-cold buffer with a Braun Teflon-glass homogenizer at the highest rpm. The homogenate was centrifuged at 20,000× g for 25 min, and the resulting pellet was suspended in the same volume of a cold buffer followed by incubation at 37 °C for 30 min to remove endogenous ligands. Centrifugation was then repeated. The final pellets were taken up in five volumes of a 50 mM Tris–HCl (pH 7.4) buffer containing 0.32 M sucrose and stored at −80 °C. Prior to the experiment, aliquots were thawed and centrifuged at 20,000× g for 25 min and then they were resuspended in 50 mM Tris–HCl (pH 7.4), homogenized with a Douncer, followed by the determination of the protein concentration by the method of Bradford. The membrane suspensions were immediately used either in radioligand binding experiments or in [^35S]GTPγS functional assays.
Filtration was performed with a 24-well Brandel Cell Harvester (Gaithersburg, MD, USA). Filters were air-dried and immersed into Ultima Gold MV scintillation cocktail, and then radioactivity was measured with a TRI-CARB 2100TR liquid scintillation analyzer (Packard, Perkin Elmer, Waltham, MA, USA).
(In general: Displacement assays read how much labelled ligand stays bound in the presence of the test substance.)

In test [4] the target is T1, CB1 receptor G protein activation, rat brain membranes. The test is described as follows: Ligand stimulated [35S]GTPγS binding assay. Type of test: biochemical. Particulars: for Emax: rat brain membranes, basal = 100%, mean ± S.E.M. As to the method: as §2
Rat brain membranes (30 µg protein/tube), prepared as described above, were incubated with 0.05 nM of [^35S]GTPγS (PerkinElmer) and 10^−10–10^−5 M unlabeled ligands in the presence of 30 µM of GDP, 100 mM of NaCl, 3 mM of MgCl2 and 1 mM of EGTA in a 50 mM Tris–HCl buffer (pH 7.4) for 60 min at 30 °C. Basal [^35S]GTPγS binding was measured in the absence of ligands and set as 100%. Nonspecific binding was determined by the addition of 10 µM unlabeled GTPγS and subtracted from total binding. Incubation, filtration and radioactivity measurements of the samples were carried out as described above.
In [^35S]GTPγS binding studies, data were expressed as the percentage stimulation of the specific [^35S]GTPγS binding over the basal activity and are given as means ±S.E.M. Each experiment was performed in triplicate and analyzed with sigmoid dose–response curve fitting to obtain potency (EC50) and efficacy (Emax) values. All data and curves were analyzed by GraphPad Prism 5.0 (San Diego, CA, USA).

For test [5], the system named is formalin-induced licking/biting. The test is described as follows: Formalin test. It counts as in vivo, CD-1 male mice. Particulars: 100 μg/20 μL s.c., mice.
From the text: as §1
Mice were located to adapt into the transparent cages individually (30 × 14 × 12 cm) for at least an hour before testing. They were injected with 20 μL of a 1% solution of formalin in saline. Then, the compounds were administered subcutaneously in the dorsal surface of the right hind paw of the mouse using a microsyringe with a 27-gauge needle for 15 min before. Compounds were prepared by freshly diluting saline containing 0.9% NaCl in the ratio DMSO:saline 1:3 (v/v). […] The total time the animal spent licking or biting its paw was calculated.

Test [6] deals with zymosan-induced paw edema. The test is described as follows: Edema induced by zymosan. Type of test: in vivo, CD-1 male mice. Particulars: 100 μg/20 μL s.c., for 24 h.
From the text: as §1
In this test, 100 µg of the compounds were administered subcutaneously in a volume of 20 µL in the dorsal surface of mice hind paw; this was done 15 min before a subcutaneous injection (20 μL/paw) of zymosan A (2.5% w/v in saline) into the same paw. Then, paw edema was calculated as formerly described. […] Paw volume was quantified using a hydroplethysmometer modified for small volumes (Ugo Basile, Varese, Italy) three times before the injections and at 1, 2, 3, 4 and 24 h thereafter.

Test [7] concerns zymosan-induced thermal hyperalgesia. Kind of test: Zymosan-induced hyperalgesia (plantar test). Type of test: in vivo, CD-1 male mice. Particulars: 100 μg/20 μL s.c., after 3 h.
From the text: as §1, with “All procedures were performed to decrease the number of animals used (n = 6 per group) and their distress.” left out
The compounds (100 µg) were administered subcutaneously in a volume of 20 µL in the dorsal surface of mice hind paw; this was done 15 min before a subcutaneous injection (20 μL/paw) of zymosan A (2.5% w/v in saline) into the same paw before the measurement of hyperalgesia. The sensitivity to a noxious heat stimulus was measured by the plantar test (Ugo Basile, Italy), in order to evaluate thermal hyperalgesia after the zymosan-induced inflammation of the mouse hind paw. […] Furthermore, on the test day, the animals were acclimatized to the experimental room 1 h before paw withdrawal latency (PWL) was calculated. […]

T2 sequence (P20272 whole entry): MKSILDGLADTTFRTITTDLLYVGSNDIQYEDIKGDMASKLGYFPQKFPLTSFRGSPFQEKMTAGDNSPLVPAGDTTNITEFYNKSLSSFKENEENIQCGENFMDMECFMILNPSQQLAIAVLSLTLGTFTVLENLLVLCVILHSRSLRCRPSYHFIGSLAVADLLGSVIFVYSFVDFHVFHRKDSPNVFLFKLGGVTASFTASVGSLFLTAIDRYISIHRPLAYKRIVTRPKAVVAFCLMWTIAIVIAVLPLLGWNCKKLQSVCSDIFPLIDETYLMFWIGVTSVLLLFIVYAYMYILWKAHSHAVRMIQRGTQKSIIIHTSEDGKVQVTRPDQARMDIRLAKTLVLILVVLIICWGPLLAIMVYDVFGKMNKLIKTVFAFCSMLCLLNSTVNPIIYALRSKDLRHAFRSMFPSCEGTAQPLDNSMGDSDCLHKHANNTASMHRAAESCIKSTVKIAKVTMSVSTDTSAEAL
T1 sequence (P20272 whole entry): as above

`COC(=O)[C@@H](NC(=O)c1nn(Cc2ccc(Cl)cc2Cl)c2ccccc12)C(C)(C)C` [LONI2, (S)-methyl-2-(1-(2,4-dichlorobenzyl)-1H-indazole-3-carboxamido)-3,3-dimethylbutanoate]: in the test with food intake, the “effect on food intake” value is on record as “reduce food intake”. Further, in test [1], the “[35S]GTPγS Binding Emax” value is listed as 143 ± 5.7% and the EC50 (as a rule, the midpoint of the concentration-response curve) was 0.0084 µM.
Consider `CCCCCn1cc(C(=O)c2cccc3ccccc23)c2ccccc21` [JWH-018, reference compound], for which, in test [2], the Ki (in general, the dissociation constant of the complex between target and ligand, obtained from inhibition or displacement) was 0.0035 ± 0.001 µM. Further, in test [1], the “[35S]GTPγS Binding Emax” value is 163 ± 5.2% and the EC50 is 0.016 ± 0.003 µM.
Consider `CNC(=O)[C@H](CC(C)C)NC(=O)c1nn(Cc2ccc(Cl)cc2Cl)c2ccccc12` [LONI12, (S)-1-(2,4-dichlorobenzyl)-N-(4-methyl-1-(methylamino)-1-oxopentan-2-yl)-1H-indazole-3-carboxamide], for which affinity in test [3] was put at a Ki of 0.32 ± 0.016 µM. The Emax (commonly the size of the effect at its maximum, as opposed to the concentration needed) in test [4] came to 101 ± 1%.
As for `CNC(=O)[C@@H](NC(=O)c1nn(Cc2ccc(Cl)cc2Cl)c2ccccc12)C(C)(C)C` [LONI11, (S)-1-(2,4-dichlorobenzyl)-N-(3,3-dimethyl-1-(methylamino)-1-oxobutan-2-yl)-1H-indazole-3-carboxamide], the affinity in test [3] corresponds to a Ki of 0.011 ± 0.0012 µM. In addition, in test [4], the EC50 is 0.2 ± 0.013 µM and the Emax is 151 ± 3%. Besides, in test [4] (compared with WIN55,212), the “potency in GTP-binding protein stimulation relative to WIN55,212” value was “three-fold less potency”. Besides, in the test with food intake, the “effect on food intake” value was “increased the food intake”. Further, in test [5], the “antinociceptive effect in formalin test” value is on record as “slight antinociceptive effect”. The “percent of paw volume (zymosan-induced edema)” value in test [6] came out at 100%. In addition, the “percent of paw latency (zymosan-induced hyperalgesia)” value in test [7] was “about 50%”.
As to `CC(C)[C@H](NC(=O)c1nn(Cc2ccc(Cl)cc2Cl)c2ccccc12)C(=O)O` [LONI4, (S)-2-(1-(2,4-dichlorobenzyl)-1H-indazole-3-carboxamido)-3-methylbutanoic acid], the “effect on food intake” value with food intake is on record as “reduce food intake”. Further, in test [1], the “[35S]GTPγS Binding Emax” value is given as 82 ± 10.6% and the EC50 was above 1 µM.
For `CC(C)(C)[C@H](NC(=O)c1nn(Cc2ccc(Cl)cc2Cl)c2ccccc12)C(N)=O` [LONI3, (S)-N-(1-amino-3,3-dimethyl-1-oxobutan-2-yl)-1-(2,4-dichlorobenzyl)-1H-indazole-3-carboxamide], in test [1], the “[35S]GTPγS Binding Emax” value is 139 ± 4.5% and the EC50 was 0.126 µM.
In test [3], `CNC(=O)[C@@H](NC(=O)c1nn(Cc2ccc(Cl)cc2Cl)c2ccccc12)C(C)C` [LONI10, (S)-1-(2,4-dichlorobenzyl)-N-(3-methyl-1-(methylamino)-1-oxobutan-2-yl)-1H-indazole-3-carboxamide] had a Ki of 0.084 ± 0.0034 µM. In addition, the Emax in test [4] was determined as 100 ± 1.7%.
For `Cc1c(C(=O)NN2CCCCC2)nn(-c2ccc(Cl)cc2Cl)c1-c1ccc(Cl)cc1` [rimonabant, 5-(4-chlorophenyl)-1-(2,4-dichloro-phenyl)-4-methyl-N-(piperidin-1-yl)-1H-pyrazole-3-carboxamide, reference compound], the “effect on food intake” value in the test with food intake is “reduce food intake”.
Regarding `CC(C)(C)[C@H](NC(=O)c1nn(Cc2ccc(Cl)cc2Cl)c2ccccc12)C(=O)O` [LONI1, (S)-2-(1-(2,4-dichlorobenzyl)-1H-indazole-3-carboxamido)-3,3-dimethylbutanoic acid], in test [1], the “[35S]GTPγS Binding Emax” value was 84 ± 6.6% and the concentration for a half-maximal effect (EC50) is above 1 µM.
